# In patent US20230002374A1, “GPR52 MODULATOR COMPOUNDS” (Heptares Therapeutics Limited, priority 2019, published 2023):
# What was measured:
# [1] = Pharmacokinetic profiling in rat (IV and PO); assay type: in vivo, male Sprague-Dawley rats; conditions: male, Sprague-Dawley, plasma, n = 3, mean ± standard deviation
# Description: The pharmacokinetic profiles of Example 1 were assessed in male Sprague-Dawley rats via intravenous (IV) and oral (per os, PO) routes of delivery. Pharmacokinetic data (mean values±standard deviation) for Example 1 of the invention are detailed in Table 5. Methods: For pharmacokinetic analysis, groups of three male Sprague-Dawley rats, ranging in weight between 200 and 230 g, were administered a single dose of Example 1 via IV or PO route, using the doses, dose volumes and vehicles specified in Table 5. […] WinNonlin v8.2 statistics software (Pharsight Corporation, California, USA) was used to generate pharmacokinetic parameters using non-compartmental analysis.
# [2] = test system: D-amphetamine-induced hyperlocomotor response; assay: Amphetamine-induced locomotor activity in rat; assay type: in vivo, male Sprague-Dawley rats; conditions: 10 mg/kg PO, 60 min before D-amphetamine SC; activity over two hours
# Description: The rat amphetamine-induced locomotor hyperactivity test is used to model the enhanced mesolimbic dopaminergic activity thought to contribute to psychosis in humans. […] Male Sprague-Dawley rats (200-250 g) were housed in groups with a 12 h light/dark cycle (lights on at 07.00), at an ambient temperature of 21±2° C. and with standard pelleted diet and water ad libitum. Testing was carried out in the light phase. On the day of the experiment, animals were habituated to the locomotor cages for a 60-minute period.
# Locomotor activity was assessed for a two hour period after D-amphetamine treatment. Data are back-transformed means, adjusted for differences between treatment groups in activity during the 30 minutes prior to treatment with test compound or vehicle (n=10-12). Analysis was by general linear model with treatment, cohort and rack as factors. SEMs were calculated from the residuals of the statistical model.
# Significant differences vs D-amphetamine are represented as *p<0.05, **p<0.01, ***p<0.001.
# [3] = test system: subchronic PCP induced cognitive deficit; assay: Subchronic PCP-induced reversal learning deficit in rat; assay type: in vivo, female Lister Hooded rats; conditions: 2 h prior to testing; for reversal of subchronic PCP reversal learning deficit (percent correct responding, reversal phase): vs vehicle-treated subchronic PCP group
# Description: Testing was carried out in the light phase. Rats underwent operant training firstly to press the left/right lever for a food reward in the presence or absence of a visual cue, and then to respond to the opposite contingency. The reversal learning task was introduced as follows. On the day before each reversal task session, a full 30-minute operant training session was conducted in order to ensure stable responding. In the initial task, animals were first exposed to a five-minute period during which the contingency (cue position relative to active lever) was the same as for the operant training session. This was followed by a 2-minute time-out period, which was signalled by the house-light being turned off. In the subsequent 5-minute period (reversal task), the contingency was reversed. Responses made on the correct and incorrect levers were recorded. Animals undertook several of these reversal learning task sessions before the beginning of the drug studies in order to ensure that they attained a stable level of performance in both phases of the task. […] At this stage, training ceased and rats were treated with PCP (2 mg/kg, IP or vehicle 0.9% saline, IP) for 7 days followed by at least 7-days washout period.
# In the initial phase, the reward contingency was the same as the previous day and in the reversal phase the reward contingency was reversed.
# Data are presented as mean total number of lever presses (+SEM) and percent correct response (+SEM). […] Statistical significance was assumed when P<0.05 and was determined as follows: one-way ANOVA (IBM SPSS Statistics 22) was performed in order to detect main effect of drug treatment in the initial and reversal tasks. Where a significant effect was detected, a post-hoc LSD t-test was performed in order to compare treatment groups versus the appropriate control in the reversal phase of the test.
# Data are shown as mean±s.e.m. % correct responding (n=8-10) and were analysed by ANOVA and post-hoc Student's t-test.
# Data are shown as the mean total number of lever presses, correct responses are shown as clear bars and incorrect responses are shown as shaded bars (n=8-10).
# [4] = Brain penetration in rat (unbound brain-to-plasma ratio, IV); assay type: in vivo, male Sprague-Dawley rats; conditions: male, Sprague-Dawley, brain and plasma, 1 mg/kg, 10 min post-dose, n = 3
# Description: Plasma and brain exposure were evaluated to assess the brain penetration of Example 1, following IV administration. Unbound brain-to-plasma ratio (Kp,uu) was calculated, as detailed in Table 5, following experimental determination of binding in rat plasma and brain homogenate. Methods: For brain penetration assessment, male Sprague-Dawley rats (n=3) were administered a single 1 mg/kg dose (formulated in 10% DMAC+10% Solutol HS15+80% saline) via the IV route. After 10 min post-dose, animals were sacrificed and brains extracted, homogenised with 2 volumes (w/v) of 50 mM sodium phosphate buffer (pH 7.4), and analysed by LC-MS/MS. Blood samples were removed at the same time point via tail vein bleed, centrifuged and the plasma analysed by LC-MS/MS. To permit calculation of unbound brain-to-plasma ratio (Kp,uu), test compound binding in rat plasma and brain homogenate was performed, using Rapid Equilibrium Dialysis (RED). […] Fraction unbound (Fu) in plasma and brain was calculated using the following formula, then used to correct total plasma and brain concentrations to derive the Kp,uu: Fraction bound=(Total plasma or brain ratio)−(Total buffer ratio)/Total plasma or brain ratio Fraction unbound (Fu,brain or plasma)=1−Fraction bound For correction of dilution in brain binding assay: Undiluted Fu,brain=(1/dilution factor)/((1/Fv diluted))−1)+(1/dilution factor) Where dilution factor=4
smiles,measurement,setting,value
"O=C1NCCc2c1cnn2-c1ccnc(Cc2cc(F)cc(C(F)(F)F)c2)c1 [Example 1, 1-(2-(3-fluoro-5-(trifluoromethyl)benzyl)pyridin-4-yl)-1,5,6,7-tetrahydro-4H-pyrazolo[4,3-c]pyridin-4-one]",clearance,"[1]; Rat IV, 1 mg/kg",16.4 ± 1 mL/min/kg
same,bioavailability,"[1]; Rat PO, 3 mg/kg",40.4 ± 6%
same,reduction of the D-amphetamine-induced hyperlocomotor response,[2],reached statistical significance at 10 mg/kg
same,"reversal of subchronic PCP reversal learning deficit (percent correct responding, reversal phase)",[3]; 10 mg/kg PO,significantly (P<0.05−P<0.001) reversed the deficit
same,"reversal of subchronic PCP reversal learning deficit (percent correct responding, reversal phase)",[3]; 30 mg/kg PO,significantly (P<0.05−P<0.001) reversed the deficit
same,effect on total number of lever presses,"[3]; 3, 10 and 30 mg/kg PO, scPCP treated rats",no significant effects
same,Kp uu at 10 min,[4],0.35 ± 0.03
